Laboratory results from ChEMBL document CHEMBL3397018, “Discovery of phenylpiperazine derivatives as IGF-1R inhibitor with potent antiproliferative properties in vitro” (Bioorg Med Chem Lett, 2015).
Activity calls are given as the source filed them. The rule behind the calls is not given here.

How the values were obtained:
[1] = Antiproliferative activity against human SGC7901 cells after 48 hrs by MTT assay; settings: SGC-7901, 48 h
[2] = Antiproliferative activity against human SMMC7721 cells after 48 hrs by MTT assay; settings: SMMC-7721, 48 h
[3] = tested on: MCF7; assay: cells; settings: Homo sapiens, MCF7, 48 h
[4] = cells; settings: Homo sapiens, LS174T, 48 h
Description: Antiproliferative activity against human LS 174T cells after 48 hrs by MTT assay

[5] = Cytotoxicity against human QSG7701 cells after 72 hrs by MTT assay; assay type: cell-based
[6] = biological target: Insulin-like growth factor 1 receptor (Homo sapiens, UniProt P08069); assay: Inhibition of NH2-terminal glutathione S-transferase fused human recombinant IGF-IR catalytic domain expressed in insect cells using poly(Glu:Tyr) substrate by ELISA-based assay
[7] = tested on: MCF7; assay: Induction of apoptosis in human MCF7 cells after 24 hrs by DNA ladder detection based method; assay type: functional, cell-based

Chain of Insulin-like growth factor 1 receptor (P08069 31-736 limits assumed): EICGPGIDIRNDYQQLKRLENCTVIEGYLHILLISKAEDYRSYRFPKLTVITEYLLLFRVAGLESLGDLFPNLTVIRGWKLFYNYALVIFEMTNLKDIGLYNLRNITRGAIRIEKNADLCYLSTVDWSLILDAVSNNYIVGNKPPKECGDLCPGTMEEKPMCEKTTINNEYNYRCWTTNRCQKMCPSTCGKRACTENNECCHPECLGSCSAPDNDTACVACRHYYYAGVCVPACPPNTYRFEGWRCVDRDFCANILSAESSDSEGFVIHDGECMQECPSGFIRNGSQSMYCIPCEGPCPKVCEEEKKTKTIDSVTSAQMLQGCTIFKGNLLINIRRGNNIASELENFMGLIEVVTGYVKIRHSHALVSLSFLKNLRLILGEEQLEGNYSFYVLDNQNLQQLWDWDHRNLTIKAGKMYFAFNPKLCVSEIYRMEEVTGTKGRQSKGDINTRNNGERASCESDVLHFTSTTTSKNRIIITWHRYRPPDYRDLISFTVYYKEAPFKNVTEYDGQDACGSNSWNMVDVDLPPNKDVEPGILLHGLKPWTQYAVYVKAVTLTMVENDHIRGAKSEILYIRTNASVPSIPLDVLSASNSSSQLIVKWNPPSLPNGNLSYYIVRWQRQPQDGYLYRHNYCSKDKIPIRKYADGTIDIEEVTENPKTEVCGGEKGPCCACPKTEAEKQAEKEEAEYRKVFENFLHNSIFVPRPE
Chain of Insulin-like growth factor 1 receptor (P08069 741-1367 limits assumed): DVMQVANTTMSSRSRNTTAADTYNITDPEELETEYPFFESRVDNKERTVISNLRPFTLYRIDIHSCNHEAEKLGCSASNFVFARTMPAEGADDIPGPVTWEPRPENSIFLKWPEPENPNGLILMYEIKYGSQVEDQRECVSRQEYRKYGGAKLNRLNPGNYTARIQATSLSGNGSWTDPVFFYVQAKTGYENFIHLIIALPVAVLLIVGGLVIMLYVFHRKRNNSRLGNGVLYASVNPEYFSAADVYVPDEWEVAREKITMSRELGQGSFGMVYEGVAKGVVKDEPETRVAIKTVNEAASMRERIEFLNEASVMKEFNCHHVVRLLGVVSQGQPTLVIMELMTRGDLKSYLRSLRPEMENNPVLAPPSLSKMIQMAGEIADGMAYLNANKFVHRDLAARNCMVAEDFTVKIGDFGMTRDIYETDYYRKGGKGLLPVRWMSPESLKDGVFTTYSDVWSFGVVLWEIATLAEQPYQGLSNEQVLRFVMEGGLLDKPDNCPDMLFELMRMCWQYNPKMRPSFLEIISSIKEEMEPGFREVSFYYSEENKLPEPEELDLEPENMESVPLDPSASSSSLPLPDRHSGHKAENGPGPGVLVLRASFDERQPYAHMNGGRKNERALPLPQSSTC

Row | SMILES | IC50 [3] [µM] | IC50 [4] [µM] | IC50 [6] [µM] | IC50 [1] [µM] | IC50 [2] [µM] | CC50 at 72 h [5] [µM] | Activity [7]
1 | OC(CN1CCN(Cc2ccccc2)CC1)c1ccc(Br)cc1 (stereo not given) | 2.88 | 2.69 | 0.568 | 3.76 | 3.54 | – | –
2 | OC(CN1CCN(C(c2ccccc2)c2ccccc2)CC1)c1ccc(Br)cc1 (stereo not given) | 0.037 | 0.111 | 0.034 | 0.253 | 0.135 | 2000 | –
3 | OC(CN1CCN(c2ccc(F)cc2)CC1)c1ccc(Br)cc1 (stereo not given) | 11.5 | 4.61 | – | 10.3 | 8.16 | – | –
4 | OC(CN1CCN(c2ccccc2F)CC1)c1ccc(Br)cc1 (stereo not given) | 16.4 | 5.34 | – | 16 | 9.63 | – | –
5 | OC(CN1CCN(c2cccc(Cl)c2Cl)CC1)c1ccc(Br)cc1 (stereo not given) | 1.06 | 1.92 | – | 2.47 | 2.04 | – | –
6 | OC(CN1CCN(c2ccc(Cl)c(Cl)c2)CC1)c1ccc(Br)cc1 (stereo not given) | 0.777 | 1.89 | – | 2.14 | 1.68 | – | –
7 | OC(CN1CCN(c2ccccc2Cl)CC1)c1ccc(Br)cc1 (stereo not given) | 2.46 | 2.54 | – | 4.62 | 3.92 | – | –
8 | OC(CN1CCN(c2cccc(Cl)c2)CC1)c1ccc(Br)cc1 (stereo not given) | 10.4 | 16.9 | – | 22.3 | 7.83 | – | –
9 | OC(CN1CCN(c2ccccc2)CC1)c1ccc(Br)cc1 (stereo not given) | 5.71 | 8.99 | – | 9.28 | 7.64 | 250 | –
10 | COc1ccc(N2CCN(CC(O)c3ccc(Br)cc3)CC2)cc1 (stereo not given) | 1.34 | 2.6 | – | 3.46 | 2.82 | – | –

The remaining molecules from weak to strong by IC50 [3], led by results:

Row | IC50 [3] [µM] | IC50 [4] [µM] | IC50 [6] [µM] | SMILES | IC50 [1] [µM] | IC50 [2] [µM] | CC50 at 72 h [5] [µM] | Activity [7]
11 | 3.41 | 6.61 | – | OC(CN1CCN(c2ccccn2)CC1)c1ccc(Br)cc1 (stereo not given) | 5.7 | 6.12 | – | –
12 | 1.75 | 2.05 | – | Cc1cc(N2CCOCC2)cc2[nH]c(-c3c(NC[C@@H](O)c4cccc(Cl)c4)cc[nH]c3=O)nc12 | 2.89 | 2.56 | 32000 | –
13 | 1.44 | 2.06 | – | COc1cccc(N2CCN(CC(O)c3ccc(Br)cc3)CC2)c1 (stereo not given) | 3.29 | 2.91 | – | –
14 | 1.31 | 2.18 | – | O=[N+]([O-])c1ccc(N2CCN(CC(O)c3ccc(Br)cc3)CC2)cc1 (stereo not given) | 1.84 | 1.53 | 1600 | –
15 | 1.22 | 2.57 | – | COc1ccccc1N1CCN(CC(O)c2ccc(Br)cc2)CC1 (stereo not given) | 4.15 | 2.28 | – | –
16 | 0.863 | 1.82 | – | Cc1ccc(N2CCN(CC(O)c3ccc(Br)cc3)CC2)c(C)c1 (stereo not given) | 1.39 | 1.48 | – | –
17 | 0.86 | 0.963 | – | OC(CN1CCN(c2cccc(C(F)(F)F)c2)CC1)c1ccc(Br)cc1 (stereo not given) | 2.08 | 1.2 | 6600 | –
18 | 0.024 | 0.068 | – | OC(CN1CCN(C(c2ccc(F)cc2)c2ccc(F)cc2)CC1)c1ccc(Br)cc1 (stereo not given) | 0.116 | 0.15 | – | Active
